In data set [1] the target is VEGFR2 (Homo sapiens, UniProt P35968). Briefly: Biochemical kinase assay, VEGFR2. The note with it: for inhibition at 10 µM: read-out: Percent inhibition at 10 μM; for IC50: n=1, 10‐dose IC50 mode with twofold serial dilutions, starting at 10 μM.
Data set [2] concerns the target human HDHODH (Homo sapiens, UniProt Q02127). Briefly: HDHODH inhibition, in vitro fluorescence‐based assays run by Reaction Biology. The class given is biochemical.
In data set [3] the test system is Pseudotyped SARS CoV2. It is filed as cell-based. The note with it: HEK293T/17 with ACE2 and TMPRSS2, 48 hours, toxic concentrations excluded, normalised data.
The test system of data set [4] is HEK293T/17 cells. The note with it: for Cytostatic effect (in words): HEK293T/17 cells; for Cytostatic effect at concentrations above: 200–0.4 μM range.
The target of data set [5] is T1, SARS‐CoV‐2 M^pro (Severe acute respiratory syndrome coronavirus 2, UniProt P0DTD1).
T1 construct: M^pro releases the functional polypeptides from the polyproteins by extensive proteolytic processing
Description: M^Pro inhibition (fluorescence‐based turnover assay / dose response). The class given is biochemical. The note with it: enzyme inhibition; 17: fluorescence‐based turnover assay.

Each structure is given as a SMILES string. Several values for one entry are separate records, joined by “and”; a condition that tells them apart may be missing. Identical values can stand only once. Entries after “also recorded” stand apart in the source; their conditions may differ. Like-named read-outs stand apart in the source and are kept apart here.

The results in this text go back to PMC9305131, “Expanding the Repertoire of Low‐Molecular‐Weight Pentafluorosulfanyl‐Substituted Scaffolds” (Chemmedchem, 2022).

By melting point is commonly meant the temperature, or range, at which the solid turns liquid. For orientation: inhibition means the change of the read-out against control, counted positive when it falls. One may read the IC50 as the midpoint of a concentration-inhibition curve. The low end stands for greater potency in that assay, the high end for weaker potency in that assay.

VEGFR2, sequence (P35968 20-1356): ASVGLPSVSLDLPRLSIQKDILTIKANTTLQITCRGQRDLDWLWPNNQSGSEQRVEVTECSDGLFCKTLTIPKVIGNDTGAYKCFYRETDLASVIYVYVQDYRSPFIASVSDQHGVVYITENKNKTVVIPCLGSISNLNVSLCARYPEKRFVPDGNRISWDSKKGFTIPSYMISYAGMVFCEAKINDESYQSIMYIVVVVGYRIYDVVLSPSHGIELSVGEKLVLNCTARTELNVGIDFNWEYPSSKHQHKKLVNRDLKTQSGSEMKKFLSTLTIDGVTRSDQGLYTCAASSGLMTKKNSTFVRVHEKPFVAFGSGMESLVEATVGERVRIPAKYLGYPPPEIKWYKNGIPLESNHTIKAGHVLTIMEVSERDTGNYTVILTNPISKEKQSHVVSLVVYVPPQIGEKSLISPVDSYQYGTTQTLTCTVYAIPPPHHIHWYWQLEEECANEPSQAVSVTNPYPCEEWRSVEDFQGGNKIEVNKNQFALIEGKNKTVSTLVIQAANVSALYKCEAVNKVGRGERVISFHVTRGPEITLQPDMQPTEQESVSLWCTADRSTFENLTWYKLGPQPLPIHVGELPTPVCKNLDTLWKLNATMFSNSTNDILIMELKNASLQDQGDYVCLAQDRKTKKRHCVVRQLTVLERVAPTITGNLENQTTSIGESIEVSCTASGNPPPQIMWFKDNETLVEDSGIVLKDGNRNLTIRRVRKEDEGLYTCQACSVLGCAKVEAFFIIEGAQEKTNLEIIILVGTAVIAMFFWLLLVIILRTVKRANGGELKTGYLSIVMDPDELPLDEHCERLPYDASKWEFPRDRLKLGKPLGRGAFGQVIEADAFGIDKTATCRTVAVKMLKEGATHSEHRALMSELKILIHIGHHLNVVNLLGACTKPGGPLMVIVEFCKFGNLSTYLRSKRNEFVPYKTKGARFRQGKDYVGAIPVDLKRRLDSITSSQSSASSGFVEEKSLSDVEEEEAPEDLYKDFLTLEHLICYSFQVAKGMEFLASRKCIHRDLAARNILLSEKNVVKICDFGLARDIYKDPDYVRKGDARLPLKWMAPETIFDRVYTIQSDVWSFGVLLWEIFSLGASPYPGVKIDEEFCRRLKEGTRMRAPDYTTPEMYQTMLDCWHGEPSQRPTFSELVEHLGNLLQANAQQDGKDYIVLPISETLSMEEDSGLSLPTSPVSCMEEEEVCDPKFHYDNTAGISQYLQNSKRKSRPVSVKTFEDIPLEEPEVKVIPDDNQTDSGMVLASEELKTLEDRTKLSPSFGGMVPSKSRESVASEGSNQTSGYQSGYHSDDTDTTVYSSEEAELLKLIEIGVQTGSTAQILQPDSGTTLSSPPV
human HDHODH, sequence (Q02127 whole entry): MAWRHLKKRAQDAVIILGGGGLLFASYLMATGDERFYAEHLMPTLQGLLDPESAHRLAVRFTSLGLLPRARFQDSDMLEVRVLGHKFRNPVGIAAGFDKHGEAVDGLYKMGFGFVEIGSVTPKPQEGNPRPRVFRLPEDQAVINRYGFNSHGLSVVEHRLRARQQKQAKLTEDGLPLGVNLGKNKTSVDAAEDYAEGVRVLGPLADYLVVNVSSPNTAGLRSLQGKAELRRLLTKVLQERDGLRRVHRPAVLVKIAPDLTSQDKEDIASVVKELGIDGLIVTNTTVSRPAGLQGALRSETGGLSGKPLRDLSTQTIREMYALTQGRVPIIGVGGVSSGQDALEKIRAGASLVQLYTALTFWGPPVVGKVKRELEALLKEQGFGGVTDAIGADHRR

Consider `O=C(c1cccc(S(F)(F)(F)(F)F)c1)N1CCOCC1` [3 c, [3‐(Pentafluoro‐λ^6‐sulfanyl)phenyl](morpholino)methanone], for which the melting point fell in the range of 63 to 64 °C.
`Cc1cc(C)c(/C=C2\C(=O)Nc3cc(S(F)(F)(F)(F)F)ccc32)[nH]1` [9 a, (3Z)‐3‐[(3,5‐Dimethyl‐1H‐pyrrol‐2‐yl)methylidene]‐6‐(pentafluoro‐λ^6‐sulfanyl)‐2,3‐dihydro‐1H‐indol‐2‐one]: the melting point fell in the range of 199 to 201 °C. Moreover, in data set [1], the inhibition at 10 µM worked out at 23% and the IC50 result is “did not manifest sufficient inhibition to generate IC50 values”.
The like results for `Cc1cc(C)c(/C=C2\C(=O)Nc3ccc(S(F)(F)(F)(F)F)cc32)[nH]1` [8 a, (3Z)‐3‐[(3,5‐Dimethyl‐1H‐pyrrol‐2‐yl)methylidene]‐5‐(pentafluoro‐λ^6‐sulfanyl)‐2,3‐dihydro‐1H‐indol‐2‐ one] were, in that order, 203 to 205 °C, 27% and “did not manifest sufficient inhibition to generate IC50 values”.
Take `Cc1oncc1C(=O)Nc1ccc(S(F)(F)(F)(F)F)cc1` [compound 15, 5‐Methyl‐N‐[4‐(pentafluoro‐λ^6‐sulfanyl)phenyl]‐1,2‐oxazole‐ 4‐carboxamide]: the melting point was in the range of 167 to 168 °C. The molecule also displayed an IC50 in data set [2] (IC50, HDHODH inhibition) of 365 nM. For the same molecule, the “Effect on SARS‐CoV‐2 infection of target cells (in words)” value (“Effect on SARS‐CoV‐2 infection” for short) in data set [3] is listed as “satisfactory inhibition of SARS‐CoV‐2 infection”. Besides, in data set [4], the “Cytostatic effect (in words)” value is “cytostatic”.
On to `O=C1Nc2ccc(S(F)(F)(F)(F)F)cc2C12CCOCC2` [11 a, 5‐(Pentafluoro‐λ^6‐sulfanyl)‐1,2‐dihydrospiro[indole‐3,4′‐ oxan]‐2‐one], for which the melting point fell in the range of 247 to 249 °C.
In the case of `CC(C)=C1C(=O)Nc2ccc(S(F)(F)(F)(F)F)cc21` [8 b, 5‐(Pentafluoro‐λ^6‐sulfanyl)‐3‐(propan‐2‐ylidene)‐2,3‐dihydro‐1H‐indol‐2‐one], the melting point is 191 to 194 °C.
As for `C/C(O)=C(\C#N)C(=O)Nc1ccc(C(F)(F)F)cc1` [Teriflunomide, reference compound], the “Effect on SARS‐CoV‐2 infection” value in data set [3] (listed as teriflunomide) was “no effect”. Moreover, in data set [4] (HEK293T/17, MTS, 48 hours), the “Cytostatic effect at concentrations above” value is listed as “above 0.78 μM”. Further, the figures for the “Cytostatic effect (in words)” value in data set [4] and in data set [4] (listed as teriflunomide) were “cytostatic” and “strong cytostatic”, respectively.
`CS(=O)(=O)N1CCN(C(=O)c2cccc(S(F)(F)(F)(F)F)c2)CC1` [3 f, (3‐Pentafluoro‐λ^6‐sulfanyl phenyl)(4‐(methylsulfonyl)piperazin‐1‐yl)methanone] had a melting point of 159 to 160 °C.
Still for that read-out and setting: as for `CN1C(=O)C2(CCOCC2)c2cc(S(F)(F)(F)(F)F)ccc21` [11 b, 1‐Methyl‐5‐(pentafluoro‐λ^6‐sulfanyl)‐1,2‐dihydrospiro[indole‐ 3,4′‐oxan]‐2‐one], the figure is 158 °C.
For `C/C(O)=C(\C#N)C(=O)Nc1ccc(S(F)(F)(F)(F)F)cc1` [compound 16, (2Z)‐2‐Cyano‐3‐hydroxy‐N‐[4‐(pentafluoro‐λ^6‐sulfanyl)phenyl] but‐2‐enamide], the melting point lay within 167 to 170 °C. In data set [2] (IC50, HDHODH inhibition), this molecule displayed an IC50 of 27 nM. For the same molecule, in data set [2] (IC50, individual determinations behind the mean (n=2), HDHODH inhibition), the IC50 is 29 nM and 25 nM. In data set [2] (relative to Teriflunomide, listed as SF5‐Teriflunomide), the “Activity/affinity towards HDHODH compared with Teriflunomide” value is given as “approximately twice as active; also recorded: approximately two‐fold greater affinity”. The “Effect on SARS‐CoV‐2 infection” value in data set [3] (listed as SF5-teriflunomide) is “no effect”. The “Cytostatic effect at concentrations above” value in data set [4] (HEK293T/17, MTS, 48 hours) is greater than 3.1 µM. The “Cytostatic effect (in words)” value in data set [4] is reported as “cytostatic”. Further, in data set [4] (listed as SF5-teriflunomide), the “Cytostatic effect (in words)” value was “strong cytostatic”.
For `O=C(c1cccc(S(F)(F)(F)(F)F)c1)N1CCCCC1` [3 a, [3‐(Pentafluoro‐λ^6‐sulfanyl)phenyl](piperidin‐1‐yl)methanone], the melting point lay within 88 to 90 °C.
`N#C/C(C(=O)Nc1ccc(F)cc1)=C(/O)c1ccc(Cl)cc1` [compound 17] registered an IC50 in data set [5] of 230 nM. In data set [2], the “Activity versus HDHODH (in words)” value is “inactive; also recorded: no affinity”. In addition, in data set [2] (HDHODH, 10 μM, read-out: Percent inhibition at 10 μM), the inhibition at 10 µM is less than 10%. Moreover, the “Effect on SARS‐CoV‐2 infection” value in data set [3] is listed as “enhancing effect”. Moreover, the “Cells healthy up to” value in data set [4] (HEK293T/17, MTS, 48 hours) is “up to 50 μM”. Besides, the “Cytostatic effect (in words)” value in data set [4] is listed as “less cytostatic”.
